Data set [1] concerns the target T1, CHD1L (Homo sapiens, UniProt Q86WJ1).
T1 sequence (Q86WJ1 1-897): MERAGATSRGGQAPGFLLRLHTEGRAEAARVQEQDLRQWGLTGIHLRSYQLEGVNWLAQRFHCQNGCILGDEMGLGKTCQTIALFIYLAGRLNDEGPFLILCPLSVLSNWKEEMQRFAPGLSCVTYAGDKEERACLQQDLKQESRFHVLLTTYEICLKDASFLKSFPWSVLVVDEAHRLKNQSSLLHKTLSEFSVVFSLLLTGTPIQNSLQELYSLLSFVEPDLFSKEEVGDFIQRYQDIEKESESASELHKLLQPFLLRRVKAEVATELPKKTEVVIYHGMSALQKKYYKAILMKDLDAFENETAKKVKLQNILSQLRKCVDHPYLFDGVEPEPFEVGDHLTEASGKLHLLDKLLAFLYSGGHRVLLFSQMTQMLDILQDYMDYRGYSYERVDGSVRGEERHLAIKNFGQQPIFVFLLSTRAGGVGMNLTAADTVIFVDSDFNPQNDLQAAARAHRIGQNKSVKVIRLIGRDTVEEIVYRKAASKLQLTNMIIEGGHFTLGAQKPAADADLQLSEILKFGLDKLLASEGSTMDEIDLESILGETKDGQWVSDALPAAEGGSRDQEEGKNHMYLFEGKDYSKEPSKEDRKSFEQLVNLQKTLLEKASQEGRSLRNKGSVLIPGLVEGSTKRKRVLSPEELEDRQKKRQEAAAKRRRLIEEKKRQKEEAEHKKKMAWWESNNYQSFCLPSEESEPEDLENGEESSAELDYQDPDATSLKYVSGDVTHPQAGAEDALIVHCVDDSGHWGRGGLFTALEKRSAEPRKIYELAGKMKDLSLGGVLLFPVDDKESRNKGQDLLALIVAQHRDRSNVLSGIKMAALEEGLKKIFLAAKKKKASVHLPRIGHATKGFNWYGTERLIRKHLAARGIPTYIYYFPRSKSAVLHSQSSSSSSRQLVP
Kind of data set: CHD1L trapping (in situ subcellular fractionation, immunofluorescence). It is filed as cell-based. Particulars: for CHD1L trapping onto chromatin/nucleosomes: single agent, SUM149PT + 0.01% MMS 4 h, BC and CRC cells. The source says: Other studies on the role of CHD1L used cell lines with knockdown or knockouts of the gene encoding for CHD1L and have never been able to study the result of its enzymatic inhibition.

In data set [2] the target is T2, cat-CHD1L (Homo sapiens, UniProt Q86WJ1).
T2 construct: made in house; host or cells: Rosetta 2 (DE3) pLysS cells (E. coli)
T2 sequence (Q86WJ1 16-619): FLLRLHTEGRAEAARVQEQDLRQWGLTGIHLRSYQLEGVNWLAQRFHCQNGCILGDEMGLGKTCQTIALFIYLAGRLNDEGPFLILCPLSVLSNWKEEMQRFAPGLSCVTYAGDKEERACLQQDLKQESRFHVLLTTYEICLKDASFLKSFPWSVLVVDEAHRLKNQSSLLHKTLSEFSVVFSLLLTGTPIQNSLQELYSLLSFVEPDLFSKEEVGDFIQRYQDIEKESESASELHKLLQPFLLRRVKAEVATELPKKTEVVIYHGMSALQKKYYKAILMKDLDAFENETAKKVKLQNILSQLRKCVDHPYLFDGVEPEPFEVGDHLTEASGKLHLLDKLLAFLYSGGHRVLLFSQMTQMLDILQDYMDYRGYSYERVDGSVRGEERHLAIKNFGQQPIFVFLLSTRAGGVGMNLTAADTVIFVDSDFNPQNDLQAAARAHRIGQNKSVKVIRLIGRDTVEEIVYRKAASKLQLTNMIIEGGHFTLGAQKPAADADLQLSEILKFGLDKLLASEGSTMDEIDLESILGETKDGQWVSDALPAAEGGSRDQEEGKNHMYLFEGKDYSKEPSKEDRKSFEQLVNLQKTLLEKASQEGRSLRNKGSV
As to the kind of experiment: CHD1L ATPase assay measured by ADP-Glo. In kind it is biochemical. In general terms: ADP-Glo first removes unused ATP, then detects ADP through luciferase.
Procedure: No enzyme control was used to measure the background. […] The reaction was incubated at 37° C. for 1 h. The assay plate was brought to RT before 5 μL of ADP-glo™ Reagent (Promega, Cat. No. V9102) was added to remove unreacted ATP. The ATP depletion step was carried out at RT for 40 min before 10 μL of Kinase Detection Reagent was added and incubated for 30-60 min to convert the ADP produced from the enzyme assay back to ATP for luciferase rection to convert to light for detection. An EnVision plate reader (PerkinElmer) was used to detect luminescence from the ADP-glo assay and the enzyme activity was determined after background subtraction and normalization to enzyme only control.

For data set [3], the system named is PAR in SUM149PT cells. As to the kind of experiment: PAR immunofluorescence (nuclear / cytoplasmic PAR). It is filed as cell-based. Particulars: for cytoplasmic PAR / nuclear PAR (PARylation): SUM149PT cells, single agent; for nuclear PAR (PARylation): 4 h. The source says:
Inhibition of CHD1L promotes PAR translocation to the cytoplasm. The main role of PARP1 during the DDR is to detect and signal the recruitment of repair machinery to the sites of DNA damage. For that, PARP1/2 catalyze PARylation, which is a pivotal […] protein modification, consisting of the addition of ADP-ribose units to the carboxyl group of acidic residues such as glutamate or aspartate on target proteins by using NAD^+ as substrate. CHD1L is one of the proteins that requires binding to these PAR chains for its activation and subsequent chromatin remodeling. Using immunofluorescence of PAR, the effect of PARPi and CHD1Li on PARylation in SUM149PT cells was investigated. […] In addition, the effect of doxorubicin on nuclear PARylation was reverted by CHD1L inhibition, causing an increase of PAR in the cytoplasm (FIG. 25A-C).

Data set [4] deals with SUM149PT tumor organoids. Kind of data set: Tumor organoid cytotoxicity (CellTiter Glo 3D), SUM149PT. In kind it is cell-based. To be noted: for IC50: Homo sapiens; for increase in potency of the chemotherapy: SUM149PT BRCA1 mutant tumor organoids, + 1.9 μM Compound 6; for improvement of IC50 potency: combined with Compound 6; for mean synergy score (Bliss): SUM149PT cells. As to the method:
Tumor organoid culture—Cell lines were cultured as tumor organoids by seeding 2,000 to 5,000 cells/well into uncoated 96 well U-bottom Ultra Low Attachment Microplates (Corning) using their corresponding medium.
Luminescence was recorded using the EnVision plate reader (PerkinElmer) and values normalized to the controls using GraphPad Prism.
In general terms: ATP-based viability assays read luminescence as a measure of living cells.

In data set [5] the test system is SUM149PT cells. Kind of data set: Cell cycle analysis by flow cytometry. It is filed as cell-based. As to the method:
Cells were then harvested by trypsinization, washed with PBS and fixed with 70% ice-cold ethanol for at least 2 h. The fixed cells were centrifuged at 300 g for 10 min, resuspended in PBS, centrifuged again, and stained in a 0.5 μg/mL DAPI solution in 0.1% Triton X-100-PBS for 30 min at RT. Samples were measured on a NovoCyte Penteon Cytometer (Agilent) and cell cycle distribution of single cells was analyzed using the automatic settings of FlowJo V10 (BD Biosciences).
Upon generation of DNA lesions, DNA damage checkpoints are also activated, which can lead to an arrest of the cell cycle, restraining chromosome segregation until the damaged DNA has been repaired. To study the effect of TNBC therapies and inhibition of CHD1L on the cell cycle, cells were stained with DAPI, and the cell subpopulations in G1, S and G2/M phases were analyzed by flow cytometry. […] Remarkably, the combination of these drugs with CHD1Li enhanced their effects, potentiating G2/M arrest caused by olaparib and G1 arrest caused by 5-FU (FIG. 23).
A general note: In flow cytometry, cells or beads pass a laser one at a time.

Data on 5 molecules can be found in patent US20260240844A1, “INHIBITORS OF CHD1L AND USES THEREOF” (The Regents of the University of Colorado, a body corporate, priority 2023, published 2026).

“Also recorded” adds a separate entry of the source. Read-outs that look alike come from different tables or passages of the source.

What is called IC50 is the concentration that inhibits the measured activity by half. Consider `COc1cccc2c1C(=O)c1c(O)c3c(c(O)c1C2=O)C[C@@](O)(C(=O)CO)C[C@@H]3O[C@H]1C[C@H](N)[C@H](O)[C@H](C)O1` [doxorubicin], for which the “CHD1L trapping onto chromatin/nucleosomes” value in data set [1] is “do not trap CHD1L”; in data set [1] (listed as Doxorubicin), “does not cause a stable interaction of CHD1L and chromatin”. Besides, the “inhibition of CHD1L ATPase activity” value in data set [2] was “do not trap CHD1L or inhibit CHD1L ATPase activity”. The “cytoplasmic PAR” value was “no effect on cytoplasmic PAR” in data set [3] and “did not elevate cytoplasmic PAR” in data set [3] (listed as Doxorubicin). For the same molecule, the results for the “nuclear PAR (PARylation)” value in data set [3] and in data set [3] (listed as Doxorubicin) were “increased PARylation in the nucleus” and “increased nuclear PAR”, respectively. Also, the IC50 in data set [4] (SUM149PT, Compound 13 0 μM, read-out: IC50 doxorubicin (μM) in SUM149PT) came to 0.505 µM; in data set [4] (SUM149PT, Compound 13 2 μM, read-out: IC50 doxorubicin (μM) in SUM149PT), 0.0944 µM; in data set [4] (SUM149PT, Compound 13 2.25 μM, read-out: IC50 doxorubicin (μM) in SUM149PT), 0.016 µM; in data set [4] (SUM149PT, Compound 13 2.5 μM, read-out: IC50 doxorubicin (μM) in SUM149PT), 0.279 µM; in data set [4] (SUM149PT tumor organoids, 72 h, + non-lethal doses of Compound 6, read-out: IC50 of the drug in combination), 0.28 ± 0.01 µM. Also, in data set [4], the “increase in potency of the chemotherapy” value is listed as 20 fold. Further, the “improvement of IC50 potency” value in data set [4] (SUM149PT tumor organoids) is on record as 2 fold.
For the molecule `Cc1cc(Nc2ccc(NC(=O)Cc3cccs3)cc2)nc(N2CCCC2)n1` [Compound 6, N-(4-((6-methyl-2-(pyrrolidin-1-yl)pyrimidin-4-yl)amino)phenyl)-2-(thiophen-2-yl)acetamide], the “CHD1L trapping in combination” value in data set [1] (Compound 6 combined with olaparib) was “complete decrease in the CHD1L trapping”. In addition, the “CHD1L trapping onto chromatin/nucleosomes” value in data set [1] was “dose-dependent increase in CHD1L trapping”. The “inhibition of CHD1L ATPase activity” value in data set [2] was “potently inhibited”. The “nuclear PAR (PARylation)” value in data set [3] is reported as “caused the same effects as PARPi”. The IC50 in data set [4] (SUM149PT, SUM149PT (BRCA1 mutant HR-deficient), read-out: IC50, tumor organoid viability, single agent) was 1.7 µM. The “Bliss synergy score, cytotoxicity” value in data set [4] (SUM149PT tumor organoids, Compound 6 combined with 5-FU) is given as 59. In addition, the cell cycle effect entry in data set [5] (24 hours, 0.2 μM) was “arrest in S and G2/M phases”.
For `Cc1cc(Nc2ccc(NC(=O)Cc3cc(Br)cs3)cc2)nc(N2CCCC2)n1` [Compound 6.11, 2-(4-bromothiophen-2-yl)-N-(4-((6-methyl-2-(pyrrolidin-1-yl)pyrimidin-4-yl)amino)phenyl)acetamide], the PAR localization entry in data set [3] (Compound 6.11 combined with doxorubicin) is reported as “shifted PAR to the cytoplasm”. In addition, in data set [3], the “cytoplasmic PAR” value was “increased cytoplasmic PAR”. Moreover, the IC50 in data set [4] (SUM149PT, read-out: IC50, tumor organoid viability, single agent, SUM149PT (BRCA1 mutant HR-deficient)) was about 1.7 µM. Moreover, the results for the “mean synergy score (Bliss)” value in data set [4] (combined with 5-FU), in data set [4] (combined with Olaparib) and in data set [4] (combined with docetaxel) were “about 60”, “about 58” and “about 56”, respectively.
As to `O=C(c1cc(Cc2n[nH]c(=O)c3ccccc23)ccc1F)N1CCN(C(=O)C2CC2)CC1` [olaparib], in data set [1], the “CHD1L trapping onto chromatin/nucleosomes” value is reported as “do not trap CHD1L; also recorded: did not show CHD1L trapping”. The “inhibition of CHD1L ATPase activity” value in data set [2] is “do not trap CHD1L or inhibit CHD1L ATPase activity”. For the same molecule, in data set [3], the “cytoplasmic PAR” value is reported as “increased cytoplasmic PAR; also recorded: increase in cytoplasmic PAR”. Moreover, the “nuclear PAR (PARylation)” value in data set [3] was “inhibition of nuclear PARylation”. Moreover, the IC50 is 170 ± 27 µM in data set [4] (SUM149PT, 72 h, read-out: IC50 of the drug alone, SUM149PT tumor organoids, 72 h); 19 ± 0.56 µM in data set [4] (SUM149PT, 72 h, read-out: IC50 of the drug in combination, SUM149PT tumor organoids, 72 h, + non-lethal doses of Compound 6); 400 µM in data set [4] (SUM149PT, read-out: IC50 Olaparib (μM) in SUM149PT, Compound 13 0 μM); 41.8 µM in data set [4] (SUM149PT, read-out: IC50 Olaparib (μM) in SUM149PT, Compound 13 2 μM); 13.4 µM in data set [4] (SUM149PT, read-out: IC50 Olaparib (μM) in SUM149PT, Compound 13 2.25 μM); 19 µM in data set [4] (SUM149PT, read-out: IC50 Olaparib (μM) in SUM149PT, Compound 13 2.5 μM). Moreover, the “increase in potency of the chemotherapy” value in data set [4] was determined as 10 fold. Besides, the “improvement of IC50 potency” value in data set [4] (SUM149PT tumor organoids) turned out to be 9 fold. The “increase in the percentage of cells in the G2/M phase” value in data set [5] (24 h) was 2 fold.
`O=c1[nH]cc(F)c(=O)[nH]1` [Compound 5-FU, 5-fluorouracil]: the “IC50 5-FU (μM) in SUM149PT” value in data set [4] (Compound 13 0 μM) is reported as “Resistant”. The IC50 in data set [4] (SUM149PT, Compound 13 2 μM, read-out: IC50 5-FU (μM) in SUM149PT) was 23.8 µM; in data set [4] (SUM149PT, Compound 13 2.25 μM, read-out: IC50 5-FU (μM) in SUM149PT) it was 23 µM; in data set [4] (SUM149PT, Compound 13 2.5 μM, read-out: IC50 5-FU (μM) in SUM149PT), 14.4 µM. Further, the “increase in potency of the chemotherapy” value in data set [4] turned out to be 10 fold. Further, the “improvement of IC50 potency” value in data set [4] (SUM149PT tumor organoids) worked out at 10 fold. In addition, the “increase in number of cells in G1 phase compared to untreated cells” value in data set [5] (24 h) turned out to be 16%.
